# US20250289837A1, “MITOCHONDRIOTROPIC HETEROARYL BENZAMIDE POTASSIUM CHANNEL KV1.3 INHIBITORS” (UNIVERZA V LJUBLJANI, priority 2022, published 2025)
# Assays:
# [1] = tested on: pancreatic cancer cell line Colo 357; experiment: Cytotoxicity in conventional 2D cultures, Cytotox green, Incucyte live cell imaging; assay type: cell-based; conditions: 24 hours of treatment, FIG. 1
# Protocol: FIG. 1. Cytotoxicity of the indicated compounds. Cells plated on 96-well plates were incubated in the presence of 50 μM of the indicated compounds and fluorescence of the dead-cell marker Cytotox green was monitored over time. In the Figure, fluorescence values after 24 h are reported normalized to the value obtained in the presence of DMSO. […] The symbols indicate biological replicates (with three technical replicates each).
# (§1) To test the activity of the compounds on biological systems, we chose the pancreatic cancer cell line Colo 357, which expresses Kv1.3 and is sensitive to cell-permeant Kv1.3 inhibitors (Zaccagnino et al., Oncotarget 8, 38276-38293, 2017). Growth, cell viability and apoptosis were all determined by high content imaging in a Incucyte (Sartorius) live cell imaging device. Images were taken every hour for several days after addition of the compounds dissolved in DMSO (time 0) and the corresponding indicators, CytotoxGreen or CytotoxRed for cytotoxicity and the green Caspase 3/7 activity reporter for apoptosis.
# The first screening for cytotoxicity was performed on conventional 2D cultures (FIG. 1).
# [2] = tested on: pancreatic cancer cell line Colo 357; experiment: Apoptosis in 2D culture, caspase 3/7 activity reporter; assay type: cell-based, human; conditions: 24 h incubation, FIG. 2; for Apoptosis induction (caspases 3/7 activation): already at 5 μM
# Protocol: FIG. 2. Levels of apoptosis observed in the presence of the indicated compounds after 24 hours incubation. Apoptosis was measured as activation of the executor caspases 3/7, using a fluorescent indicator. The values were normalized against the apoptosis level observed in the presence of the solvent (DMSO). The symbols indicate biological replicates (with three technical replicates each).
# as §1
# The toxic effect of both compounds was induced through apoptosis, as expected from mitoKv1.3 inhibitors Urbani, A., et al., Front Cell Dev Biol 8, 620081, 2021). FIG. 2 represents apoptosis induction after 24 h incubation in the presence of compound 2 and 8 at the indicated concentrations.
# Colo 357 tumor spheroids [3] = experiment: Cytotoxicity on tumor spheroids (3-D cultures), Cytotox green; assay type: cell-based, human; conditions: concentrations as low as 5 μM, 48 h treatment, FIG. 3
# Protocol: FIG. 3. Cytotoxicity of the indicated compounds on tumor spheroids. Fluorescence of the dead-cell marker Cytotox green was monitored over time. In the Figure, fluorescence values after 48 h in the presence of the indicated concentration of the compound are reported normalized to the value obtained in the presence of DMSO. The symbols indicate biological replicates (with three technical replicates each).
# as §1
# To obtain information on the effect of the compounds in a model more similar to the situation in vivo, the effects of 2 and 8 were also studied in tumor spheroids. […] Cytotoxicity was determined as in the conventional 2D cultures but after 48 h treatment instead of 24 h, because the effects needed longer time to develop.
# Colo 357 tumor spheroids [4] = experiment: Apoptosis in tumor spheroids (3D culture), caspase 3/7 reporter; assay type: cell-based, human; conditions: 25 μM, FIG. 6
# Protocol: FIG. 4. Levels of apoptosis observed in the presence of the indicated compounds during 48 h of treatment. Images were acquired every hour. Apoptosis was measured as activation of the executor caspases 3/7, using a fluorescent indicator. Mean±SEM, three replicates.
# FIG. 5. Levels of apoptosis observed in the presence of the indicated compounds over time at two different concentrations (the curves for control and 5 μM are the same as in FIG. 4). Apoptosis was measured as activation of the executor caspases 3/7, using a fluorescent indicator. The open symbols in orange represent 5 μM, solid symbols indicate 25 μM.
# FIG. 6. Comparison of the time course of the induction of apoptosis (orange) and of cell death (blue) in the presence of 25 μM compound 8. […]
# To test the activity of the compounds on biological systems, we chose the pancreatic cancer cell line Colo 357, which expresses Kv1.3 and is sensitive to cell-permeant Kv1.3 inhibitors (Zaccagnino et al., Oncotarget 8, 38276-38293, 2017). Growth, cell viability and apoptosis were all determined by high content imaging in a Incucyte (Sartorius) live cell imaging device. […]
# Cell death in 3D culture was also attributable to induction of apoptosis. […] The fluorescence of the caspase 3/7 reporter was detectable soon after addition of the treatment and was markedly more intense than the values measured in the control treatment (DMSO).
# KV1.3 = conditions: cited from earlier work
# KV1.5 = KV1.5 (Homo sapiens, UniProt P22460); conditions: cited from earlier work
# [5] = tested on: human SAOS2, mouse B16F10 melanoma, and human B-CLL; conditions: cited from earlier work
# [6] = tested on: HEK293 and K562 cells, and T and B cells from healthy subjects; conditions: cited from earlier work
# [7] = tested on: orthotopic melanoma B16F10; conditions: cited from earlier work; for B16F10 tumor volume: orthotopic mouse B16F10 melanoma model
# cancer cells = conditions: in vitro and in vivo studies; cited from earlier work
# [8] = tested on: Jurkat leukemia T cells, mouse melanoma B16F10 cells, human PDAC cells (Bx-PC3, PANC-1, As-PC1, CAPAN-1); conditions: B16F10, Bx-PC3, PANC-1, As-PC1, CAPAN-1 cells; cited from earlier work
# [9] = tested on: human pancreatic Colo357 tumors; conditions: mice; cited from earlier work
# [10] = cited from earlier work
# [11] = tested on: KV1.1, KV1.2, KV1.5 and KV3.1; conditions: cited from earlier work
# [12] = tested on: pancreatic ductal adenocarcinoma (PDAC) cells; conditions: cited from earlier work
# [13] = tested on: orthotopic PDAC xenograft; conditions: SCID beige mouse; cited from earlier work
compound,measurement,setting,value
"COc1ccccc1C(=O)NC[C@]1(c2ccsc2)CC[C@H](OC(=O)NCCC[P+](c2ccccc2)(c2ccccc2)c2ccccc2)CC1.[I-] [Example 2, (3-(((((1S,4S)-4-((2-Methoxybenzamido)methyl)-4-(thiophen-3-yl)cyclohexyl)oxy)carbonyl)amino)propyl)triphenylphosphonium iodide]",Cell death (cytotoxicity screening),[1],most intense effect
same,Dose dependence of the intensity of apoptosis induction,[2],increased in a dose-dependent manner
same,Apoptosis induction (caspases 3/7 activation),[2],strong increase in apoptotic cells
same,Cytotoxicity in tumor spheroids,Colo 357 tumor spheroids [3],significant levels of cytotoxicity
"COc1ccccc1C(=O)NCC1(c2ccsc2)CCC(OC(=O)NCCCC[P+](c2ccccc2)(c2ccccc2)c2ccccc2)CC1.[I-] [Example 8, (4-(((((1S,4S)-4-((2-Methoxybenzamido)methyl)-4-(thiophen-3-yl)cyclohexyl)oxy)carbonyl)amino)butyl)triphenylphosphonium iodide]",Cell death (cytotoxicity screening),[1],most intense effect
same,Dose dependence of the intensity of apoptosis induction,[2],increased in a dose-dependent manner
same,Apoptosis induction (caspases 3/7 activation),[2],strong increase in apoptotic cells
same,Cytotoxicity in tumor spheroids,Colo 357 tumor spheroids [3],significant levels of cytotoxicity
same,Time course of apoptosis compared with cytotoxicity in spheroids,Colo 357 tumor spheroids [4],initiation of the decline in apoptosis signal corresponds to the start of the increase in the number of dead cells
"O=c1ccc2c(OCCCCOc3ccccc3)c3ccoc3cc2o1 [PAP-1, 4-(4-phenoxybutoxy)-7H-furo[3,2-g]chromen-7-one]",IC50,KV1.3,[…]
same,Apoptosis in cancer cells,[5],induced apoptosis
same,Effects on healthy cells,[6],did not show similar effects
"O=c1ccc2c(OCCCCOc3ccc(CCC[P+](c4ccccc4)(c4ccccc4)c4ccccc4)cc3)c3ccoc3cc2o1.[I-] [PAPTP, (3-(4-(4-((7-oxo-7H-furo[3,2-g]chromen-4-yl)oxy)butoxy)phenyl)propyl)triphenylphosphonium iodide]",Tumor volume reduction,[7]; co-applied with cisplatin,more than 90%
same,B16F10 tumor volume,[7],greatly reduce
same,Effectiveness compared with the parent PAP-1,cancer cells,much more effective than the parent PAP-1
same,Cell death,[8],induced cell death
same,Colo357 tumors,[9],significant reductions
"O=C(NCCC[P+](c1ccccc1)(c1ccccc1)c1ccccc1)Oc1ccc(OCCCCOc2c3ccoc3cc3oc(=O)ccc23)cc1.[I-] [PCARBTP, (3-(((4-(4-((7-oxo-7H-furo[3,2-g]chromen-4-yl)oxy)butoxy)phenoxy)carbonyl)amino)propyl)triphenylphosphonium iodide]",B16F10 tumor volume,[7],greatly reduce
same,Hydrolysis in culture medium,[10]; Dulbecco's modified Eagle medium,slow hydrolysis
same,Hydrolysis in mouse blood,"[10]; physiological conditions, mouse blood",hydrolyzed to PAPOH
same,Effectiveness compared with the parent PAP-1,cancer cells,much more effective than the parent PAP-1
same,Cell death,[8],induced cell death
same,Colo357 tumors,[9],significant reductions
"O=C(OCCC[P+](c1ccccc1)(c1ccccc1)c1ccccc1)Oc1ccc(OCCCCOc2c3ccoc3cc3oc(=O)ccc23)cc1.[I-] [PCTP, (3-(((4-(4-((7-oxo-7H-furo[3,2-g]chromen-4-yl)oxy)butoxy)phenoxy)carbonyl)oxy)propyl)triphenylphosphonium iodide]",Effectiveness compared with the parent PAP-1,cancer cells,much more effective than the parent PAP-1
same,Cell death,[8],induced cell death
"O=c1ccc2c(OCCCCc3ccccc3)c3ccoc3cc2o1 [Psora-4, 4-(4-Phenylbutoxy)-7H-furo[3,2-g][1]benzopyran-7-one]",IC50,KV1.3,[…]
same,Apoptosis in cancer cells,[5],induced apoptosis
same,Effects on healthy cells,[6],did not show similar effects
"CC(C)N=c1cc2n(-c3ccc(Cl)cc3)c3ccccc3nc-2cc1Nc1ccc(Cl)cc1 [clofazimine, N,5-bis(4-chlorophenyl)-3-propan-2-yliminophenazin-2-amine]",IC50,KV1.3,300 nM
same,"Selectivity over KV1.1, KV1.2, KV1.5 and KV3.1",[11],tenfold
same,Apoptosis in cancer cells,[5],induced apoptosis
same,Effects on healthy cells,[6],did not show similar effects
same,Apoptosis in PDAC cells,[12],induced apoptosis
same,Primary tumor weight,[13],significantly reduced
same,Reduction of tumor size,"[7]; orthotopic melanoma B16F10 line, mouse",90%
